Laboratory results from US20020168365A1, “Method for modulating granzyme B uptake and for identifying modulators thereof” (priority 2000, published 2002).

Tests used:
CD-MPR^+ cells [1] = experiment: GrB uptake (unpublished findings); type: cell-based, murine L cells transfected with human CD-MPR; conditions: CD-MPR-overexpressing CD-MPR^+ cells
Jurkat cells = experiment: GrB binding assay (flow cytometry, labeled grB at 4° C.); parameters: species or system human
Procedure: Cells (1-2×10^5) were washed twice and resuspended in buffer before the addition of grB-biotin or -OG in a final volume of 20 μl for a 30-60 min incubation and washed again twice. In the case of grB-biotin, cells were then incubated with streptavidin-cychrome for 20 min and washed twice. Unless otherwise indicated, ˜25 ng grB-biotin or -OG was used to label cells. All steps of the assay were carried out at 4° C. to prevent intracellular uptake of grB. PBS/0.1% BSA buffer was used throughout the procedure. In some cases, results are presented as the relative MFI, which represents the MFI of the grB-labeled population minus the MFI of the unlabeled population.
GrB was treated for 1 hr at 37° C. in a phosphate-free (saline) or a high-phosphate (64.5 mM Na2HPO4.7H2O, 21 mM KH2PO4) buffer with calf intestinal alkaline phosphatase (1-10 U), 20 nM of the 37 kDa catalytic subunit of recombinant protein phosphatase-1 (Bagu et al, 1997), or with vehicle control. Cells were then incubated with the treated grB at 4° C. for 30-60 min. For the TUNEL or annexin V assays, cells were then washed twice before incubation at 37° C. with AD.
M6P and various other monosaccharides at different concentrations were added to cells for 15 min at 4° C. before the addition of labeled grB, or at room temperature before the addition of grB and AD.
GrB was incubated with sCI-MPR at various concentrations in PBS/0.1% BSA for 30 min at 4° C. Subsequently, cells were incubated with grB/sCI-MPR for 30-60 min at 4° C. and washed twice, before analysis of binding, or before the addition of AD for TUNEL and annexin V analysis.

CI-MPR^+ cells = experiment: TUNEL and annexin V apoptosis assays with grB and AD; type: cell-based, murine L cells transfected with human CI-MPR
Procedure: (§1) For the in vitro killing assays, 10 pfu per cell of replication-deficient adenovirus (AD) were added subsequent to grB addition. Analysis of DNA fragmentation by TUNEL analysis has been described previously (Heibein et al., 1999). TUNEL materials (Roche Diagnostics) were used as per the manufacturer's instructions. Phosphatidylserine externalization was measured as previously described (Heibein et al., 1999) using annexin V-FITC (PharMingen). Percent specific TUNEL/annexin V positive cells was calculated as: [(% positive labeling cells with grB and AD-% positive labeling cells without grB and AD)/(100-% positive labeling cells without grB and AD)]×100.

CD-MPR^+ cells [2] = experiment: as above; type: cell-based, murine L cells transfected with human CD-MPR; conditions: 100 ng/ml grB and AD, 3 hr
Procedure: as §1

procaspase-3 = experiment: Caspase 3 cleavage by Western blotting; type: cell-based, human; conditions: grB (18 nM) and AD, 3 hr
Procedure: Cells were resuspended at 10^6 cells/ml in 0.1% BSA/DMEM. Adenovirus (10 PFU/cell) and granzyme B (grB) were added directly to the cell suspension. Cells were incubated at 37° C. for 3 h. For staurosporine killing, cells were resuspended at 10^6 cells/ml in their normal growth medium and staurosporine (2.5 μM) was added directly to the cell suspension. Cells were incubated at 37° C. for 2, 4 and 8 h. Cellular lysates were collected by directly harvesting 10^5 cells into 100 μl of sodium dodecyl sulfate-polyacrylamide gel electrophoresis (SDS-PAGE) gel loading buffer and subjected to SDS-PAGE analysis. Proteins were transferred to nitrocellulose (Micron Separations Inc.) by using a semidry transfer apparatus (Tyler Corp.) for 1 h at 150 mA. Membranes were blocked in phosphate-buffered saline (PBS) containing 0.1% Tween 20 (ICN Biomedicals Inc.) and 5% skim milk for 16 h. Caspase 3 was detected using polyclonal rabbit anti-caspase 3 at a dilution of 1:10,000. The membrane was incubated with the primary antibody for 2 h, after which the blot was washed three times in PBS containing 0.1% Tween 20. The membranes were probed with a horseradish peroxidase-conjugated goat anti-rabbit secondary antibody (Bio-Rad Laboratories) at a 1:20,000 dilution. Transferred proteins were visualized with a chemiluminescence detection system (Amersham Inc.).

wild-type L cells = experiment: TUNEL and annexin V apoptosis assays with grB and AD; type: cell-based, murine
Procedure: as §1

MPR^− cells = experiment: as above; type: cell-based, murine; conditions: 100 ng/ml grB and AD, 3 hr
Procedure: as §1

[3] = at later times (data not shown)
[4] = at the time-point of the assay (3 hr)

For “grB: Human serine proteinase granzyme B purified from the cytolytic granules of YT-Indy cells”, the grB uptake (CD-MPR^+ cells [1]) was “essentially no grB uptake”, the “ability to bind Jurkat cells” value (Jurkat cells; grB treated with catalytic subunit of protein phosphatase-1 (data not shown)) was “did not lose” and the “ability to bind Jurkat cells” value (Jurkat cells; grB-biotin treated with alkaline phosphatase in phosphate-free buffer) was “marked reduction”. The “TUNEL and annexin V positive cells” value (CI-MPR^+ cells; [3]) was about 100%, the “TUNEL and annexin V positive cells” value (CI-MPR^+ cells; [4]) was “about 30%” and the “annexin V binding after grB and AD” value (CD-MPR^+ cells [2]) was “did not bind annexin V”. The “grB and AD-mediated DNA fragmentation” value (CD-MPR^+ cells [2]) was “resistant”, the “cleavage of procaspase-3” value (procaspase-3; Jurkat cells) was “able to observe cleavage” and the “cleavage of procaspase-3” value (procaspase-3; MDA-MB-231 cells) was “unable to observe any cleavage”. For the same substance, the “cleavage of procaspase-3” value (procaspase-3; SK-BR-3 cells) was “unable to observe any cleavage”, the “cleavage of procaspase-3” value (procaspase-3; T47-D cells) was “able to observe cleavage” and the “TUNEL and annexin V positive cells” value (wild-type L cells; [3]) was about 100%. The “TUNEL and annexin V positive cells” value (wild-type L cells; [4]) was “about 30%” and the “grB and AD-induced DNA fragmentation” value (MPR^− cells) was “relatively resistant”.
